Measurements from patent US20250059164A1, “IRAK DEGRADERS AND USES THEREOF” (Kymera Therapeutics, Inc., priority 2023, published 2025).

Assays:
IRAK4 = molecular target: T1, IRAK4 (Homo sapiens, UniProt Q9NWZ3); experiment: IRAK4 MSD degradation in OCI-LY10; type: cell-based; conditions: OCI-LY10 cells, 24 hrs, Meso Scale Discovery
T1 construct: endogenous in cells; host or cells: OCI-LY10
T1 sequence (Q9NWZ3 1-460): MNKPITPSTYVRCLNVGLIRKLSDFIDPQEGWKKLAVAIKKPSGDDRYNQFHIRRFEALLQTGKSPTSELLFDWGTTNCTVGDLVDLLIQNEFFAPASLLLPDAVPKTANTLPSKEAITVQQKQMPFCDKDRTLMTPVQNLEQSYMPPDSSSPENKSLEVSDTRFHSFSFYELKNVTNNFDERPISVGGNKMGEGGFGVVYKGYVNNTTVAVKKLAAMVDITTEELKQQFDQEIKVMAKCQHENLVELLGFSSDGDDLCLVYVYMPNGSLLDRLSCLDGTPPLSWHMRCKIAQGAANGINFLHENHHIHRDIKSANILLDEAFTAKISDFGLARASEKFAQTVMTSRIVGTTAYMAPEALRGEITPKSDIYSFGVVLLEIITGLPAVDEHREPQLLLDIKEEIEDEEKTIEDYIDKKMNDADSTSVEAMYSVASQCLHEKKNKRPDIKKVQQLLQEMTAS
Outline: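 Remaining IRAK4 protein measured by Meso Scale Discovery electrochemiluminescence sandwich assay on lysates of OCI-LY10 cells. Cells were exposed for 4 to 24 hours (37° C., 5% CO2) to eight 1:3-diluted concentrations starting at 1 to 10 μM. DC50 derived by three-parameter logistic fitting.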

[1] = Rodent pharmacokinetics (rat PK); type: in vivo; conditions: po, dosed intravenously or orally by gavage, plasma, read-out: F % (bioavailability)
Outline: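 F % is reported as a letter code: A for ≥5%, B for ≤5%. It was derived from rat plasma profiles after intravenous or oral gavage dosing, with jugular vein sampling from predose to 24 h (5 min point for IV only).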

Compound | DC50 (IRAK4) [nM] | bioavailability [1] [%]
Cn1c(=O)n(C2CCC(=O)NC2=O)c2ccc(F)c([C@H]3CCN(C[C@H]4CC[C@H](n5cc6cc(NC(=O)c7cncc(C#N)c7)c(C(C)(C)O)cc6n5)CC4)CC3(F)F)c21 (single isomer, unassigned) [I-383] | < 10 | ≤ 5
Cn1c(=O)n(C2CCC(=O)NC2=O)c2cccc([C@@H]3CCN(C[C@H]4CC[C@H](n5cc6cc(NC(=O)c7cncc(C#N)c7)c(C(C)(C)O)cc6n5)CC4)CC3(F)F)c21 (single isomer, unassigned) [I-389] | < 10 | ≤ 5
Cn1c(=O)n(C2CCC(=O)NC2=O)c2cccc([C@H]3CCN(C[C@H]4CC[C@H](n5cc6cc(NC(=O)c7cncc(C#N)c7)c(C(C)(C)O)cc6n5)CC4)CC3(F)F)c21 (single isomer, unassigned) [I-390] | < 10 | ≤ 5
COc1ccc2c(c1[C@@H]1CCN(C[C@H]3CC[C@H](n4cc5cc(NC(=O)c6cncc(C(F)(F)F)n6)ccc5n4)CC3)CC1(F)F)n(C)c(=O)n2C1CCC(=O)NC1=O (single isomer, unassigned) [I-391] | < 10 | ≥ 5
COc1ccc2c(c1[C@H]1CCN(C[C@H]3CC[C@H](n4cc5cc(NC(=O)c6cncc(C(F)(F)F)n6)ccc5n4)CC3)CC1(F)F)n(C)c(=O)n2C1CCC(=O)NC1=O (single isomer, unassigned) [I-392] | < 10 | ≥ 5
Cn1c(=O)n(C2CCC(=O)NC2=O)c2cccc([C@@H]3CCN(C[C@H]4CC[C@H](n5cc6cc(NC(=O)c7cccc(C(F)(F)F)n7)c(N7CCN(C8CC8)CC7)cc6n5)CC4)C[C@H]3F)c21 (stereo partly shown) [I-107] | 10 to 100 | ≤ 5
Cn1c(=O)n(C2CCC(=O)NC2=O)c2cccc(C#CCOC[C@H]3CC[C@H](n4cc(NC(=O)c5cnn6ccc(N7C[C@H]8C[C@@H]7CO8)nc56)c(C(F)F)n4)CC3)c21 (stereo partly shown) [I-108] | 10 to 100 | ≥ 5
Cn1c(=O)n(C2CCC(=O)NC2=O)c2cccc(CCCOC[C@H]3CC[C@H](n4cc(NC(=O)c5cnn6ccc(N7C[C@H]8C[C@@H]7CO8)nc56)c(C(F)F)n4)CC3)c21 (stereo partly shown) [I-109] | > 200 | ≤ 5
COc1cc2nc([C@H]3CC[C@H](CN4CCC5(CN(c6cccc7c6n(C)c(=O)n7C6CCC(=O)NC6=O)C5)C(F)(F)C4)CC3)sc2cc1NC(=O)c1cncc(C#N)c1 (stereo partly shown) [I-110] | 10 to 100 | ≤ 5
Cn1c(=O)n(C2CCC(=O)NC2=O)c2cccc(N3CC(COC[C@H]4CC[C@H](n5cc(NC(=O)c6cnn7ccc(N8C[C@H]9C[C@@H]8CO9)nc67)c(C(F)F)n5)CC4)C3)c21 (stereo partly shown) [I-111] | > 200 | ≤ 5
Cn1c(=O)n(C2CCC(=O)NC2=O)c2ccc(F)c(N3CC(N4CCN([C@H]5CC[C@H](n6cc(NC(=O)c7cnn8ccc(N9C[C@H]%10C[C@@H]9CO%10)nc78)c(C(F)F)n6)CC5)CC4)C3)c21 (stereo partly shown) [I-117] | < 10 | ≥ 5
COc1cc2nn([C@H]3CC[C@H](CN4CCC5(CCN(c6cccc7c6n(C)c(=O)n7C6CCC(=O)NC6=O)CC5)C(F)(F)C4)CC3)cc2cc1NC(=O)c1cncc(F)c1 (stereo partly shown) [I-127] | < 10 | ≤ 5
COc1cc2nn([C@H]3CC[C@H](CN4CCC5(CN(c6ccc(C7CCC(=O)NC7=O)c(Cl)c6)C5)C(F)(F)C4)CC3)cc2cc1NC(=O)c1cncc(C#N)c1 (stereo partly shown) [I-128] | 10 to 100 | ≤ 5
Cn1c(=O)n(C2CCC(=O)NC2=O)c2cccc([C@@H]3CCN(C[C@H]4CC[C@H](n5cc6cc(NC(=O)c7cncc(C#N)c7)ccc6n5)CC4)C[C@H]3F)c21 (stereo partly shown) [I-129] | < 10 | ≤ 5
COc1cc2nn([C@H]3CC[C@H](CN4CCC5(CCN(c6cccc7c(C8CCC(=O)NC8=O)nn(C)c67)CC5)C(F)(F)C4)CC3)cc2cc1NC(=O)c1cncc(C#N)c1 (stereo partly shown) [I-132] | < 10 | ≤ 5
COc1cc2nn([C@H]3CC[C@H](CN4CC[C@@H](c5c(Cl)ccc6c5n(C)c(=O)n6C5CCC(=O)NC5=O)[C@H](F)C4)CC3)cc2cc1NC(=O)c1cncc(C#N)c1 (stereo partly shown) [I-133] | < 10 | ≤ 5
Cn1c(=O)n(C2CCC(=O)NC2=O)c2cccc([C@@H]3CCN(C[C@H]4CC[C@H](n5cc6cc(NC(=O)c7cc(C(F)(F)F)ccn7)ccc6n5)CC4)C[C@H]3F)c21 (stereo partly shown) [I-134] | > 200 | ≥ 5
Cn1c(=O)n(C2CCC(=O)NC2=O)c2cccc(N3CC[C@H](NC[C@H]4CC[C@H](n5cc(NC(=O)c6cnn7ccc(N8C[C@H]9C[C@@H]8CO9)nc67)c(C(F)F)n5)CC4)[C@@H](F)C3)c21 (stereo partly shown) [I-135] | < 10 | ≥ 5
CN(C[C@H]1CC[C@H](c2nc3cc(C(C)(C)O)c(NC(=O)c4cccc(C(F)(F)F)n4)cc3o2)CC1)[C@@H]1CCN(c2cccc3c2n(C)c(=O)n3C2CCC(=O)NC2=O)C[C@H]1F (stereo partly shown) [I-137] | < 10 | ≥ 5
Cn1c(=O)n(C2CCC(=O)NC2=O)c2cccc(N3CCC4(CCN(C[C@H]5CC[C@H](n6cc7cc(NC(=O)c8cccc(C(F)(F)F)c8)ncc7n6)CC5)CC4(F)F)CC3)c21 (stereo partly shown) [I-141] | 10 to 100 | ≤ 5
COc1cc2nn([C@H]3CC[C@H](CN4CC[C@@H](c5cccc6c5n(C)c(=O)n6C5CCC(=O)NC5=O)[C@H](F)C4)CC3)cc2cc1C(=O)Nc1cccc(C(F)(F)F)c1 (stereo partly shown) [I-142] | < 10 | ≥ 5
Cc1nc(C(=O)Nc2ccc3nn([C@H]4CC[C@H](CN5CC[C@@H](c6cccc7c6n(C)c(=O)n7C6CCC(=O)NC6=O)[C@H](F)C5)CC4)cc3c2)co1 (stereo partly shown) [I-148] | < 10 | ≤ 5
Cn1c(=O)n(C2CCC(=O)NC2=O)c2cccc([C@@H]3CCN(C[C@H]4CC[C@H](n5cc6cc(NC(=O)c7csc(C(F)(F)F)n7)ccc6n5)CC4)C[C@H]3F)c21 (stereo partly shown) [I-149] | < 10 | ≤ 5
Cn1c(=O)n(C2CCC(=O)NC2=O)c2cccc([C@@H]3CCN(C[C@H]4CC[C@H](n5cc6cc(NC(=O)c7nc(C(F)(F)F)cs7)ccc6n5)CC4)C[C@H]3F)c21 (stereo partly shown) [I-154] | < 10 | ≤ 5
Cn1cc(Cl)c(C(=O)Nc2ccc3nn([C@H]4CC[C@H](CN5CC[C@@H](c6cccc7c6n(C)c(=O)n7C6CCC(=O)NC6=O)[C@H](F)C5)CC4)cc3c2)n1 (stereo partly shown) [I-155] | > 200 | ≤ 5
Cn1c(=O)n(C2CCC(=O)NC2=O)c2cccc([C@@H]3CCN(C[C@H]4CC[C@H](n5cc6cc(NC(=O)c7cncc(C(F)(F)F)n7)ncc6n5)CC4)C[C@H]3F)c21 (stereo partly shown) [I-156] | < 10 | ≤ 5
Cn1c(=O)n(C2CCC(=O)NC2=O)c2cccc([C@@H]3CCN(C[C@H]4CC[C@H](c5nc6cc(C(C)(C)O)c(NC(=O)c7cncc(C(F)(F)F)c7)cc6s5)CC4)C[C@H]3F)c21 (stereo partly shown) [I-163] | < 10 | ≥ 5
Cn1c(=O)n(C2CCC(=O)NC2=O)c2cccc([C@@H]3CCN(C[C@H]4CC[C@H](c5nc6cc(C(C)(C)O)c(NC(=O)c7cccc(C(F)(F)F)n7)cc6o5)CC4)C[C@H]3F)c21 (stereo partly shown) [I-167] | < 10 | ≥ 5
Cn1c(=O)n(C2CCC(=O)NC2=O)c2cccc([C@@H]3CCN(C[C@H]4CC[C@H](c5nc6cc(C(C)(C)O)c(NC(=O)c7cccc(C(F)(F)F)c7)cc6s5)CC4)C[C@H]3F)c21 (stereo partly shown) [I-169] | < 10 | ≤ 5
